Data as given in ChEMBL document CHEMBL1159170 (Bioorg Med Chem Lett, 1995).
The source made the active and inactive calls. The calls are words filed in the database; no cut-off is given here.

How the values were obtained:
D(1A) dopamine receptor = D(1A) dopamine receptor (Rattus norvegicus, UniProt P18901); assay: Binding affinity against Dopamine receptor D1 in rat striatal membranes using [3H]SCH-23390; assay type: cell membranes, Striatum, Membrane
D(2) dopamine receptor = D(2) dopamine receptor (Rattus norvegicus, UniProt P61169); assay: Binding affinity against Dopamine receptor D2 in rat striatal membranes using [3H]spiperone; assay type: cell membranes, Striatum, Membrane
Canis familiaris [1] = assay: Ability to induce dilation of dog femoral artery when administered intravenously; Values is potency versus DPDA; assay type: functional, Canis lupus familiaris
[2] = target: T1, Adrenergic receptor alpha-1 (Homo sapiens, UniProt P35348+P25100+P35368); assay: Compound was tested for its binding affinity against Alpha-1 adrenergic receptor; assay type: protein assay
T1 sequence (P35348 whole entry): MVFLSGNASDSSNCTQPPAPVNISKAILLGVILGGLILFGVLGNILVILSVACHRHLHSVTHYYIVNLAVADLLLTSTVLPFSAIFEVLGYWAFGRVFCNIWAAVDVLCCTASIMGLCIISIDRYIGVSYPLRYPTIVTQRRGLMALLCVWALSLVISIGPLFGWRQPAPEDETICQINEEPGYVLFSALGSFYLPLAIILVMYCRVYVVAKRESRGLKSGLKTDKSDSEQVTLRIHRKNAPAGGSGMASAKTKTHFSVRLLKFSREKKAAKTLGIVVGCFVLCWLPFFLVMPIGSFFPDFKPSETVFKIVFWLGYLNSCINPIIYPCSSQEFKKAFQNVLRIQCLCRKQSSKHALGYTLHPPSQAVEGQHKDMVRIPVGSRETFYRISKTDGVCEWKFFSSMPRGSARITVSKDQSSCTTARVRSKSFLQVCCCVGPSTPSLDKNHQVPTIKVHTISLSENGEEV
T1 sequence (P25100 whole entry): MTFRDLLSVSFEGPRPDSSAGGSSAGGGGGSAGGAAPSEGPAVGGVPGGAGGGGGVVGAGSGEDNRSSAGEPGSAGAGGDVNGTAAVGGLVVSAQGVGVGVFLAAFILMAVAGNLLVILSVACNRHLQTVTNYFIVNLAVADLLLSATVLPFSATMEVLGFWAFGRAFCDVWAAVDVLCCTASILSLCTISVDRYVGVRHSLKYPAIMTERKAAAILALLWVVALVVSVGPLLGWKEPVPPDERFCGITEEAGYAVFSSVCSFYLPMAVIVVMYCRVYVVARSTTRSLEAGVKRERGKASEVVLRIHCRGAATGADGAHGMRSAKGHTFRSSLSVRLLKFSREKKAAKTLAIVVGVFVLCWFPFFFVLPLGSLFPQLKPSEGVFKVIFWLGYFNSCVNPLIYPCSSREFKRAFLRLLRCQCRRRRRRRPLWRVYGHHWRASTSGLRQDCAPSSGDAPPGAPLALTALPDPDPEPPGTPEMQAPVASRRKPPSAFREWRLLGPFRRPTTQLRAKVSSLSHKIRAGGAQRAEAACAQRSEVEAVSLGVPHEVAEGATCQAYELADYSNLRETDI
T1 sequence (P35368 whole entry): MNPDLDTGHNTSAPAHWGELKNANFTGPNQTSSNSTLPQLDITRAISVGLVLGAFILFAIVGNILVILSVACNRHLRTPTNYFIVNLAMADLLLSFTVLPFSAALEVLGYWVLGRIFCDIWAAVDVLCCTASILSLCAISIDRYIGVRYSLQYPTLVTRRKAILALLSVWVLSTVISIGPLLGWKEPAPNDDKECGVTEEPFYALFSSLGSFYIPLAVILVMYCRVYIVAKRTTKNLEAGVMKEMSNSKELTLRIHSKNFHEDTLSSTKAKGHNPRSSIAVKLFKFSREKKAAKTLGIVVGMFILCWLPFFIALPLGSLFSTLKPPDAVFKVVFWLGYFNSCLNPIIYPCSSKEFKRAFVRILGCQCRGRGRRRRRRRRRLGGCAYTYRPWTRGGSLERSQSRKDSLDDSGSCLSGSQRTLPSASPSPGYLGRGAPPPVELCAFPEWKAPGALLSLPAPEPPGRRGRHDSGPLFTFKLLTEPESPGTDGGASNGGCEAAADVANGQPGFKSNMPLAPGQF

[3] = target: Beta-1 adrenergic receptor (Homo sapiens) (UniProt P08588); assay: Compound was tested for its binding affinity against Beta-1 adrenergic receptor; IA is Inactive
Canis familiaris [4] = assay: Blockade of dog renal artery dilation by the […] was measured after intravenous administration of 0.05-0.1 mg/kg; assay type: functional, Canis lupus familiaris
Canis familiaris [5] = assay: Ability to induce dilation of dog renal artery when administered intravenously; Values is potency versus DPDA; assay type: functional, Canis lupus familiaris
Canis familiaris [6] = assay: Blockade of dog femoral artery dilation by the D-2 antagonist domperidone was measured after intravenous administration of […]; assay type: functional, Canis lupus familiaris
[7] = target: Beta-2 adrenergic receptor (Homo sapiens) (UniProt P07550); assay: Compound was tested for its binding affinity against beta-2 adrenoceptor; IA is Inactive
Rattus norvegicus [8] = assay: Compound was tested for mean blood pressure effect in conscious spontaneously hypertensive rats after peroral administration of 30 mg/kg; assay type: functional; conditions: route oral
Rattus norvegicus [9] = assay: Compound was tested for urine flow in conscious spontaneously hypertensive rats after peroral administration of 30 mg/kg; assay type: functional; conditions: route oral

D(2) dopamine receptor, sequence (P61169 whole entry): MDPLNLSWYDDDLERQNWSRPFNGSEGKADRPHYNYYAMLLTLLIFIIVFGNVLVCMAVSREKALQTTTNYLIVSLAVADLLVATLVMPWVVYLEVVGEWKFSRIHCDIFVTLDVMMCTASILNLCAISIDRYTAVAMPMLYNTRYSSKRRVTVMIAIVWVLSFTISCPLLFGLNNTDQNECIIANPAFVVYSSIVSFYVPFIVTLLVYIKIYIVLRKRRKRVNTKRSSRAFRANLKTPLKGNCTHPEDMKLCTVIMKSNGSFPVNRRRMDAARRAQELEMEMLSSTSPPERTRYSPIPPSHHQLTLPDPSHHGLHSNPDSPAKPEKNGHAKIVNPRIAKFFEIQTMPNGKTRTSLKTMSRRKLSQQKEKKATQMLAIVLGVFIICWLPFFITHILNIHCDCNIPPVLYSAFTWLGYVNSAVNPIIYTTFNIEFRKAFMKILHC
Beta-2 adrenergic receptor (Homo sapiens), sequence (P07550 whole entry, looked up): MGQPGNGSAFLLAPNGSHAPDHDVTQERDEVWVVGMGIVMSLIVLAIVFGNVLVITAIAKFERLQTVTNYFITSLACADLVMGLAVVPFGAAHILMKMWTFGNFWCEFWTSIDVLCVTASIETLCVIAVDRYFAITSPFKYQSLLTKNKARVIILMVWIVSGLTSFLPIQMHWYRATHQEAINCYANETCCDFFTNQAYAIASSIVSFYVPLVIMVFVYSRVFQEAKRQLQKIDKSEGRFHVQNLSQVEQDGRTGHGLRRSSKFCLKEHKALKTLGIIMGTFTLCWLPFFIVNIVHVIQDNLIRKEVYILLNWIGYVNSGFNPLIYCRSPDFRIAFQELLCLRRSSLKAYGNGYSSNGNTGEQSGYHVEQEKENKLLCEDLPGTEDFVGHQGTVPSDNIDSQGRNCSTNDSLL
D(1A) dopamine receptor, sequence (P18901 whole entry): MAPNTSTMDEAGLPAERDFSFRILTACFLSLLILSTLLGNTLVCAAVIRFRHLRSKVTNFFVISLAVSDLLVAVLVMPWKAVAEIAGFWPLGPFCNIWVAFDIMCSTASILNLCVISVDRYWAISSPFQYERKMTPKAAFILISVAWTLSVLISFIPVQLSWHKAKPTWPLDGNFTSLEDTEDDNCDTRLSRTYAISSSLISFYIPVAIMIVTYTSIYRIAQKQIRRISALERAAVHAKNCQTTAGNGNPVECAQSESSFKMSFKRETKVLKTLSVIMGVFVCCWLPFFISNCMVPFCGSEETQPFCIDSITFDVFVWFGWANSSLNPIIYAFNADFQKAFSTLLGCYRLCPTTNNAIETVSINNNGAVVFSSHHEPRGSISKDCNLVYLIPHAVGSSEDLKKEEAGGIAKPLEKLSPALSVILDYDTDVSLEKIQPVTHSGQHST
Beta-1 adrenergic receptor (Homo sapiens), sequence (P08588 whole entry, looked up): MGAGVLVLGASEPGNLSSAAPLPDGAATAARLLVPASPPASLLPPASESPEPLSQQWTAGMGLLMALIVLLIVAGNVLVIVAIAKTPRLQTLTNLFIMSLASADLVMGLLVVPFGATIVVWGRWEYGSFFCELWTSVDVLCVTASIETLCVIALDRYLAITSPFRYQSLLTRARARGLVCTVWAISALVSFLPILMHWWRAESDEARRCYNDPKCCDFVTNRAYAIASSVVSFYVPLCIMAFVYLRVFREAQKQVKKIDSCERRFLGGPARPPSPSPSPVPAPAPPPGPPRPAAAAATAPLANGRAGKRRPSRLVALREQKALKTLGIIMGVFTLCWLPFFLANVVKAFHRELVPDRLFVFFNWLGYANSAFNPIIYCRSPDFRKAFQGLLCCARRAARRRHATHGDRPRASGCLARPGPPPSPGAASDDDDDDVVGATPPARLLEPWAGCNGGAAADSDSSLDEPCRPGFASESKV

| Structure (SMILES) | Ki (D(1A) dopamine receptor) [nM] | Ki (D(2) dopamine receptor) [nM] | Log Ki [2] | Log Ki [3] | Log Ki [7] | Change in blood flow (Canis familiaris [1]) | Blockade (Canis familiaris [4]) [%] | Change in blood flow (Canis familiaris [5]) | Blockade (Canis familiaris [6]) [%] | Decrease in blood pressure (Rattus norvegicus [8]) | Cumulative urine volume (Rattus norvegicus [9]) |
| --- | --- | --- | --- | --- | --- | --- | --- | --- | --- | --- | --- |
| CCCCN1CCCC1Cc1ccc(O)c(O)c1 (stereo not given) | 7.94 | 3.16 |  |  |  |  |  |  |  |  |  |
| Oc1ccc(C2CNCCc3c2cc(O)c(O)c3Cl)cc1 (stereo not given) [FENOLDOPAM] |  |  |  |  |  | 0.2 | 100 | 8 | 20 |  |  |
| CCCN(CCC)CCc1ccc(O)c(O)c1 | 4680 | 22.4 | -5.7 |  |  | 1 |  |  | 80 |  |  |
| NCCc1ccc(O)c(O)c1 [DOPAMINE] |  |  |  |  |  |  | 100 | 1 |  | 9.4 | 4 |

Second part, led by results:

| Ki (D(1A) dopamine receptor) [nM] | Ki (D(2) dopamine receptor) [nM] | Log Ki [2] | Log Ki [3] | Log Ki [7] | Structure (SMILES) | Change in blood flow (Canis familiaris [1]) | Blockade (Canis familiaris [4]) [%] | Change in blood flow (Canis familiaris [5]) | Blockade (Canis familiaris [6]) [%] | Decrease in blood pressure (Rattus norvegicus [8]) | Cumulative urine volume (Rattus norvegicus [9]) |
| --- | --- | --- | --- | --- | --- | --- | --- | --- | --- | --- | --- |
| 617 | 14.8 | -6.41 | inactive | inactive | Oc1ccc(C[C@@H]2CCCN2CCCCCCN2CCC[C@H]2Cc2ccc(O)c(O)c2)cc1O | 0.3 | 100 | 1.2 | 0 |  |  |
| 575 | 8.91 | -6.24 | inactive | inactive | Oc1ccc(C[C@H]2CCCN2CCCCCCN2CCC[C@H]2Cc2ccc(O)c(O)c2)cc1O | 80 | 100 | 9.4 | 20 |  |  |
| 6.46 | 6.17 | -7.25 | inactive | inactive | Oc1ccc(C[C@H]2CCCN2CCCCCCN2CCC[C@@H]2Cc2ccc(O)c(O)c2)cc1O | 359 | 100 | 1.2 | 70 | 22.4 | 17 |
| 18.6 | 3.24 | -6.41 | inactive | inactive | CCCN(CCCCCCN1CCC[C@@H]1Cc1ccc(O)c(O)c1)CCc1ccc(O)c(O)c1 | 382 | 100 | 6 | 70 | 18.6 | 24 |
